Reference: patent US6245817A, “NPY5 receptor antagonists and methods for using same” (Bayer Corporation, priority 1999, dated 2001)
pIC50: −log10 of the molar value.

Legend:
[1] = target: T1, Human NPY2 receptor (Homo sapiens, UniProt P49146); experiment: Human NPY2 Receptor Binding Assay; details: [125I]PYY; read-out: hPPY2 IC50
T1 sequence (P49146 1-381): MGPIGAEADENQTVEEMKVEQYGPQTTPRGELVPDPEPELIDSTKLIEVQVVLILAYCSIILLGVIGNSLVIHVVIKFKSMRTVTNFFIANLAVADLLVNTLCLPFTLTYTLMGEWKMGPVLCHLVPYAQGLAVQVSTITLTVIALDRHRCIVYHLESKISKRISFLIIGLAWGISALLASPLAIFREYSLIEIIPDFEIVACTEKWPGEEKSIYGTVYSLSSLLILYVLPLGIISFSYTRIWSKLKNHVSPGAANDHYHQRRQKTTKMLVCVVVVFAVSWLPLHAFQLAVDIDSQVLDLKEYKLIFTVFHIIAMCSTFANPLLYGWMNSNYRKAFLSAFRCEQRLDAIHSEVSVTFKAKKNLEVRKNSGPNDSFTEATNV

[2] = target: T2, Human NPY5 Receptor (Homo sapiens, UniProt Q15761); experiment: Human NPY5 Receptor Binding Assay; details: [125I]PYY; read-out: hNPY5 IC50
T2 sequence (Q15761 1-445): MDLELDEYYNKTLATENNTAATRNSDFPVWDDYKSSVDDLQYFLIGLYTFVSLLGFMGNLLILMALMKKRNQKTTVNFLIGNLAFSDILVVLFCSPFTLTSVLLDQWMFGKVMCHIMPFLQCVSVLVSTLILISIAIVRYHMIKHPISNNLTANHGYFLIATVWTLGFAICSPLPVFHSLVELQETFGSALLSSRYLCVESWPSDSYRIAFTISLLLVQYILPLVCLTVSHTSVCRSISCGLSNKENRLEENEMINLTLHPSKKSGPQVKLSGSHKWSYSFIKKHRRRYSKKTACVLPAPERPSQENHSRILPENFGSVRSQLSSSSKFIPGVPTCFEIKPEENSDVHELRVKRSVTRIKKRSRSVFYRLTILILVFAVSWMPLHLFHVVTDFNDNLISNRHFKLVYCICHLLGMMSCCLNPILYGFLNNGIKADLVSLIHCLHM

[3] = target: T3, Rat NPY5 Receptor (Rattus norvegicus, UniProt Q63634); experiment: Rat NPY5 Receptor Binding Assay; details: [125I]PYY; read-out: rNPY5 IC50
T3 sequence (Q63634 1-445): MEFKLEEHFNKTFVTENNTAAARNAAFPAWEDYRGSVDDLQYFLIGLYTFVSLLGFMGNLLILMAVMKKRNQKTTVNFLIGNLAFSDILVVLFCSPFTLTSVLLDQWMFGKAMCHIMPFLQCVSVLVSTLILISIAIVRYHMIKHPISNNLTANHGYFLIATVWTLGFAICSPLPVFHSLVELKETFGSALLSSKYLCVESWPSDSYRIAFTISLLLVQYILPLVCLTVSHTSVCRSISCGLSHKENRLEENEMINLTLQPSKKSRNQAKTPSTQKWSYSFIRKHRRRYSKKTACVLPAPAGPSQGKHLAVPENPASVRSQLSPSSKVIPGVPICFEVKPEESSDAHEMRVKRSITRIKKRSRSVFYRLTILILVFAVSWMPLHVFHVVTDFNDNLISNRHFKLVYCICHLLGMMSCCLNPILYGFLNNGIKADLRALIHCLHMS

Row | SMILES | pIC50 [1] | pIC50 [2] | pIC50 [3]
1 | O=C(CSc1nc2cc([N+](=O)[O-])ccc2[nH]1)Nc1ccc(C2CCCCC2)cc1 [Compound 17, N-(4-Cyclohexyl-phenyl)-2-(5-nitro-1H-benzoimidazol-2-ylsulfanyl)-acetamide] | < 5.30 | 6.42 | –
2 | O=C(CSc1nc2cc([N+](=O)[O-])ccc2[nH]1)Nc1ccc(C(=O)c2ccccc2)cc1 [Compound 18, N-(4-Benzoyl-phenyl)-2-(5-nitro-1H-benzolmidazol-2-ylsulfanyl)-acetamide] | < 5.30 | 6.70 | –
3 | COc1ccc2[nH]c(SCC(=O)Nc3ccc(C4CCCCC4)cc3)nc2c1 [Compound 19, N-(4-Cyclohexyl-phenyl)-2-(5-methoxy-1H-benzolmidazol-2-ylsulfanyl)-acetamide] | < 5.30 | 6.15 | –
4 | COc1ccc2[nH]c(SCC(=O)Nc3ccc(C(=O)c4ccccc4)cc3)nc2c1 [Compound 20, N-(4-Benzoyl-phenyl)-2-(5-methoxy-1H-benzolmidazol-2-ylsulfanyl)-acetamide] | < 5.30 | 6.38 | –
5 | Cc1ccc2[nH]c(SCC(=O)Nc3ccc(C4CCCCC4)cc3)nc2c1 [Compound 21, N-(4-Cyclohexyl-phenyl)-2-(5-methyl-1H-benzolmidazol-2-ylsulfanyl)-acetamide] | < 5.30 | 6.37 | –
6 | Cc1ccc2[nH]c(SCC(=O)Nc3ccc(C(=O)c4ccccc4)cc3)nc2c1 [Compound 22, N-(4-Benzoyl-phenyl)-2-(5-methyl-1H-benzolmidazol-2-ylsulfanyl)-acetamide] | < 5.30 | 6.51 | –
7 | O=C(CSc1ncnc2c1ncn2[C@@H]1O[C@H](CO)[C@H](O)[C@H]1O)Nc1ccc(C2CCCCC2)cc1 [Compound 23, N-(4-Cyclohexyl-phenyl)-2-[9-((2R,3R,4R,5R)-3,4-dihydroxy-5-hydroxymethyl-tetrahydro-furan-2-yl)-9H-purin-6-ylsulfanyl]-acetamide] | < 5.30 | < 5.00 | –
8 | O=C(CSc1nc(-c2ccccc2)no1)Nc1ccc(C2CCCCC2)cc1 [Compound 90, N-(4-Cyclohexyl-phenyl)-2-(3-phenyl-[1,2,4]oxadiazol-ylsulfanyl)-acetamide] | – | 6.59 | 6.47
9 | Cc1nnc(SCC(=O)Nc2ccc(C3CCCCC3)cc2)s1 [Compound 91, N-(4-Cyclohexyl-phenyl)-2-(5-methyl [1,3,4]thiadiazol-2-ylsulfanyl)-acetamide] | – | 7.10 | 7.08
10 | O=C(CSc1nnnn1-c1ccc(O)cc1)Nc1ccc(C2CCCCC2)cc1 [Compound 92, N-(4-Cyclohexyl-phenyl)-2-[1-(4-hydroxy-phenyl)-1H-tetrazo-ylsulfanyl]-acetamide] | – | 7.09 | 7.14
11 | O=C(CSc1nnc(-c2ccccc2)o1)Nc1ccc(C2CCCCC2)cc1 [Compound 94, N-(4-Cyclohexyl-phenyl)-2-(5-phenyl-[1,3,4]oxadiazo-2-ylsulfanyl)-acetamide] | – | 6.17 | 5.92
12 | O=C(CSCc1cccc(CS)c1)Nc1ccc(C2CCCCC2)cc1 [Compound 96, N-(4-Cyclohexyl-phenyl)-2-(3-mercaptomethyl-benzylsulfanyl)-acetamide] | – | 6.07 | 6.21
13 | Nc1ccccc1SCC(=O)Nc1ccc(C2CCCCC2)cc1 [Compound 97, 2-(2-Amino-phenylsulfanyl)-N-(4-cyclohexyl-phenyl)-acetamide] | – | 6.96 | 7.05
14 | Nc1cccc(SCC(=O)Nc2ccc(C3CCCCC3)cc2)c1 [Compound 98, 2-(3-Amino-phenylsulfanyl)-N-(4-cyclohexyl-phenyl)-acetamide] | – | 6.49 | 6.54
15 | Nc1ccc(SCC(=O)Nc2ccc(C3CCCCC3)cc2)cc1 [Compound 99, 2-(4-Amino-phenylsulfanyl)-N-(4-cyclohexyl-phenyl)-acetamide] | – | 6.16 | 6.29
16 | O=C(CSCc1cccc(CS)c1)Nc1ccc(C(=O)c2ccccc2)cc1 [Compound 101, N-(4-Benzoyl-phenyl)-2-(3-mercaptomethyl-benzylsulfanyl)-acetamide] | – | 5.85 | 5.82

Row | SMILES | pIC50 [1] | pIC50 [2] | pIC50 [3]
17 | Nc1cccc(SCC(=O)Nc2ccc(C(=O)c3ccccc3)cc2)c1 [Compound 102, 2-(3-Amino-phenylsulfanyl)-N-(4-benzoyl-phenyl)-acetamide] | – | 6.47 | 6.51
18 | O=C(CSC1CCCC1)Nc1ccc(C(=O)c2ccccc2)cc1 [Compound 109, N-(4-Benzoyl-phenyl)-2-cyclopentylsulfanyl-acetamide] | – | 6.21 | 6.43
19 | O=C(CSCc1ccco1)Nc1ccc(C(=O)c2ccccc2)cc1 [Compound 110, N-(4-Benzoyl-phenyl)-2-(furan-2-ylmethylsulfanyl)-acetamide] | – | 6.54 | 6.47
20 | O=C(CSc1nnc(-c2ccco2)[nH]1)Nc1ccc(C2CCCCC2)cc1 [Compound 111, N-(4-Cyclohexyl-phenyl)-2-(5-furan-2-yl-4H-[1,2,4]triazol-3-ylsulfanyl)-acetamide] | – | 5.85 | 6.24
21 | Cn1c(CO)cnc1SCC(=O)Nc1ccc(C2CCCCC2)cc1 [Compound 114, N-(4-Cyclohexyl-phenyl)-2-(5-hydroxymethyl-1-methyl-1H-imidazol-2-ylsulfanyl)-acetamide] | – | 6.05 | 6.41
22 | COC(=O)c1cnc(SCC(=O)Nc2ccc(C3CCCCC3)cc2)n1C [Compound 115] | – | 6.05 | 6.44
23 | O=C(CSc1nnc(NC2CCCCC2)s1)Nc1ccc(C2CCCCC2)cc1 [Compound 116] | – | 5.89 | 5.70
24 | CSc1sc(-c2nnc(SCC(=O)Nc3ccc(C(=O)c4ccccc4)cc3)n2C)c2c1C=CCC2 [Compound 119] | – | 6.20 | 5.82
25 | COc1ccc(-c2nnc(SCC(=O)Nc3ccc(C(=O)c4ccccc4)cc3)n2-c2cccc(C(F)(F)F)c2)cc1 [Compound 120, N-(4-Benzoyl-phenyl)-2-(5-(4-methoxy-phenyl)-4-(3-trifluoromethyl-phenyl)-4H-[1,2,4]triazol-3-ylsulfanyl]-acetamide] | – | 5.89 | 6.28
26 | Cn1c(CO)cnc1SCC(=O)Nc1ccc(C(=O)c2ccccc2)cc1 [Compound 121, N-(4-Benzoyl-phenyl)-2-(5-hydroxymethyl-1-methyl-1H-imidazol-2-ylsulfanyl)acetamide] | – | 6.04 | 5.55
27 | COC(=O)c1cnc(SCC(=O)Nc2ccc(C(=O)c3ccccc3)cc2)n1C [Compound 122, 2-[(4-Benzoyl-phenylcarbamoyl)-methylsulfanyl]-3-methyl-3H-imidazole-4-carboxylic acid methyl ester] | – | 5.82 | < 6.00
28 | O=C(CSc1nnc(NC2CCCCC2)s1)Nc1ccc(C(=O)c2ccccc2)cc1 [Compound 123, N-(4-Benzoyl-phenyl)-2-(5-cyclohexylamino [1,3,4]thiadiazol-2-ylsulfanyl)-acetamide] | – | 6.38 | 6.28
29 | O=C(CSc1nnc(CSCCOc2ccc(Cl)cc2Cl)o1)Nc1ccc(C(=O)c2ccccc2)cc1 [Compound 124] | – | < 6.00 | 5.64
30 | CC(Sc1nnnn1C)C(=O)Nc1ccc(C(C)(C)C)cc1 (stereo not shown) [Compound 125, N-(4-tert-Butyl-phenyl)-2-(1-methyl-1H-tetrazol-5-ylsulfanyl)-propionamide] | – | 6.00 | 6.44
31 | CC(Sc1nnnn1C)C(=O)Nc1ccc(C2CCCCC2)cc1 (stereo not shown) [Compound 127, N-(4-Cyclohexyl-phenyl)-2-(1-methyl-1H-tetrazol-5-ylsulfanyl)-propionamide] | – | 7.23 | 7.30
32 | Cn1nnnc1SCC(=O)Nc1ccc2c(c1)Cc1ccccc1-2 [Compound 130, N-(9H-Fluoren-2-yl)-2-(1-methyl-1H-tetrazol-5-ylsulfanyl)-acetamide] | – | 6.80 | 6.82
